{"source": "patent US5240714A", "about": "“Non-digoxin-like Na^+, K^+ -ATPase inhibitory factor” (priority 1989, dated 1993)", "system": "anti-digoxin antibody", "assay": "digoxin radioimmunoassay (cross-reactivity with anti-digoxin antibody)", "format": "binding", "details": "at the doses tested", "protocol": "Radioimmunoassay. Generally, a digoxin antibody covalently bound to the inner surface of polypropylene tubes was used, obtained from Immunochem (USA). Digoxin standards and samples were diluted 1:2 in 1.5M Tris-ClH, pH 7.5. ^125 I-digoxin (2000 μCi/μg) was used.\nAs stated previously, this cross reaction is not a necessary criteria for HHIF. However, this method is used to follow and evaluate digoxin-like substances in the exemplary purification procedures. An RIA commercial kit was used, purchased from Immunochem. Digoxin standards and sample preparations were diluted 1:2 in 1.5M Tris-ClH, pH 7.5. Digoxin antibodies were covalently bound to the inner surface of polypropylene tubes. After a 30 min. incubation at 20° C., tubes with sample plus I^125 -digoxin unbound radioactivity are discarded and the tubes counted by […]. Values of DLA are calculated by extrapolating from the standard curve constructed on semilogarithmic paper with plots of B/B. vs. concentration.\nA radioimmunoassay method based on charcoal separation using a commercial antibody elicited in rabbit against digoxin is also used as described by Smith, T. W., et al. \"Determination Of Therapeutic And Toxic Serum Digoxin Concentrations By Radioimmunoassay.\" The New England J Med. 1969;1212-1216.", "data": [{"smiles": "C[C@@H]1O[C@@H](O[C@H]2C[C@@H](O)[C@]3(CO)[C@H]4[C@H](O)C[C@]5(C)[C@@H](C6=CC(=O)OC6)CC[C@]5(O)[C@@H]4CC[C@]3(O)C2)[C@H](O)[C@H](O)[C@H]1O", "note": "[ouabain]", "values": [{"measurement": "cross-reactivity with anti-digoxin antibody (digoxin immunoreactivity)", "result": "weakly cross-reacted"}]}]}
